The text below walks through data of US20220088002A1, “METHOD AGAINST CORONAVIRUS INFECTION WITH QUINOLINE COMPOUND” (CHANG GUNG UNIVERSITY, priority 2020, published 2022).

One experiment relates to HcoV-229E. Put plainly: Effect against HCoV-229E in Vero E6 cells (MTT cell viability). It is filed as cell-based, human coronavirus 229E. As for the experimental part:
Vero E6 cells were divided into 6 groups, including one normal control group, one pathological control group, and four experimental groups (i.e., experimental groups 1 to 4). Each group of the Vero E6 cells was incubated in a respective well of a 96-well culture plate containing 100 μL of E2 medium at 2×10^4 cells/well, followed by cultivation in an incubator (37° C., 5% CO2) for 24 hours. Afterwards, the culture medium in each well was removed, and the cells of the experimental groups 1 to 4 were pretreated with 6-bromo-2-[1-(2,5-dimethylphenyl)-5-methyl-1H-pyrazol-4-yl]-quinoline-4-carboxylic acid (i.e., HP520-3) (Cat. No. Molport-020-176-277, Molport Inc.) respectively at concentrations of 39 nM, 78 nM, 156 nM, and 312 nM, followed by adding 150 μL of the HcoV-229E solution prepared in section 2 of General Experimental Materials. […]
Each group was cultivated in an incubator (37° C., 5% CO2) for 96 hours. […] After cultivation in an incubator (37° C., 5% CO2) for 2 hours, the respective resultant cell culture was added with 150 μL of dimethyl sulfoxide (DMSO), followed by subjecting the mixture thus obtained to determination of absorbance at a wavelength of 590 nm (OD590) by an ELISA reader.
The cell viability rate (%) was calculated using the following Equation (I): […]

For experiment [1], the system named is SARS-CoV-2. It is filed as cell-based. The conditions noted are these: Vero E6 cells pretreated at 0.3125 μM, 1.25 μM, and 5 μM, m.o.i. 0.01; normalized against GAPDH; versus pathological control group.
Experiment [2] deals with SARS-CoV-2. Put plainly: Viral plaque reduction assay. It is filed as cell-based. The settings on record: SARS-CoV-2-infected Vero E6 cells (m.o.i. 0.01), 1 μM and 10 μM, 72 hours; versus pathological control group.

Structures are written as SMILES.

What is called EC50 is the concentration needed to bring the measured effect to its halfway point. As for `Cc1ccc(C)c(-n2ncc(-c3cc(C(=O)O)c4cc(Br)ccc4n3)c2C)c1` [HP520-3, 6-bromo-2-[1-(2,5-dimethylphenyl)-5-methyl-1H-pyrazol-4-yl]-quinoline-4-carboxylic acid], the cell viability rate result in the experiment on HcoV-229E (HcoV-229E-infected Vero E6 cells pretreated at 39 nM, 78 nM, 156 nM, and 312 nM, versus pathological control group) was “significantly higher than that determined in the pathological control group”. The 50% effective concentration (EC50) with HcoV-229E (Human coronavirus 229E, Vero C1008, HcoV-229E-infected Vero E6 cells, 96 hours, MTT, n=3, mean±SD) worked out at 141 ± 15.4 nM. Besides, the “relative RNA expression level of E gene of SARS-CoV-2” value with SARS-CoV-2 [1] is given as “significantly lower than that of the pathological control group”. Moreover, in the experiment with SARS-CoV-2 [2], the “number of viral plaques” value was “lower than that determined in the pathological control group”.
